# Biological target: Beta Secretase enzyme (BACE) (Homo sapiens, UniProt P56817)
# Assay: In vitro enzymatic BACE FRET (fluorescence resonance energy transfer) assay
# Format: biochemical
# Settings: BACE 1 FRET assay (uM)
# Method: In Vitro Enzymatic Bace Fret (Fluorescence Resonance Energy Transfer) Assay (Enzyme Assay Data in the Example Table I)
# The assay buffer used in this screen is 0.05 M acetate, pH 4.2, 10% DMSO final, 100 uM genapol (which is a nonionic detergent, below its Critical Micelle Concentration). […] This assay is effectively started by the addition of FRET substrate (50 nM) and the combination is incubated for one hour. The FRET assay is terminated with by addition of Tris buffer, which raises the pH to neutrality, and the fluorescence is determined. The FRET substrate is a peptide with commercially available fluorophore and quencher, on opposite sides of the BACE cleavage site.
# Sequence of Beta Secretase enzyme (BACE) (P56817 46-501, species assumed): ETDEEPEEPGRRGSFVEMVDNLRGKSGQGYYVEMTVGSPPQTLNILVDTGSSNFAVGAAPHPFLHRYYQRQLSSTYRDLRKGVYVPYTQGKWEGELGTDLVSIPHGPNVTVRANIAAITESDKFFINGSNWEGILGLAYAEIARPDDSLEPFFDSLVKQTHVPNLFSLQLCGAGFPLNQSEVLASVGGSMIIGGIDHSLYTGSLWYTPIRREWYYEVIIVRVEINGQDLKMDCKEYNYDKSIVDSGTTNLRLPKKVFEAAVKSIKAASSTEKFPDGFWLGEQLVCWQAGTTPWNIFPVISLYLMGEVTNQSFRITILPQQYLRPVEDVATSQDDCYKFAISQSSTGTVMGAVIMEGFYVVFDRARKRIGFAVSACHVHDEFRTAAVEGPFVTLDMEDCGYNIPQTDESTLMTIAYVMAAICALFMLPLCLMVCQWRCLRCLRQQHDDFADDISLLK
row,Structure (SMILES),IC50 [µM]
1,"NC1=N[C@]2(CO1)c1cc(C3=CCOCC3)ccc1Oc1ccc(-c3cccnc3F)cc12 [Example 136, (R)-2′-(3,6-dihydro-2H-pyran-4-yl)-7′-(2-fluoropyridin-3-yl)-5H-spiro[oxazole-4,9′-xanthen]-2-amine 2,2,2-trifluoroacetate]",0.0026
2,"NC1=N[C@@]2(CO1)c1cc(-c3cccnc3F)ccc1Oc1cnc(N3CCC(F)(F)CC3)cc12 [Example 137, (S)-3-(4,4-difluoropiperidin-1-yl)-7-(2-fluoropyridin-3-yl)-5′H-spiro[chromeno[2,3-c]pyridine-5,4′-oxazol]-2′-amine]",0.0007
3,"NC1=N[C@@]2(CO1)c1cc(-c3cccnc3F)ccc1Oc1cnc(N3CCC(F)(F)C3)cc12 [Example 140, (S)-3-(3,3-difluoropyrrolidin-1-yl)-7-(2-fluoropyridin-3-yl)-5′H-spiro[chromeno[2,3-c]pyridine-5,4′-oxazol]-2′-amine]",0.0006

# Same assay, conditions: average IC50, enzyme assay; read-out: BACE 1 FRET assay
row,Structure (SMILES),IC50 [µM]
1,"CC(C)(C)C#Cc1cc2c(cn1)Oc1ccc(-c3c(F)ccnc3F)cc1[C@@]21COC(N)=N1 [Example 165, (5S)-7-(2,4-difluoro-3-pyridinyl)-3-(3,3-dimethyl-1-butyn-1-yl)spiro[chromeno[2,3-c]pyridine-5,4′-[1,3]oxazol]-2′-amine]",0.002
2,"NC1=N[C@@]2(CO1)c1cc(-c3cncc(F)c3)ccc1Oc1c(F)cc([C@H]3CCOC3)cc12 [Example 296, (4S)-4′-fluoro-7′-(5-fluoro-3-pyridinyl)-2′-((3R)-tetrahydro-3-furanyl)spiro[1,3-oxazole-4,9′-xanthen]-2-amine]",0.0072
3,"NC1=N[C@@]2(CO1)c1cc(-c3cncc(F)c3)ccc1Oc1c(F)cc([C@@H]3CCOC3)cc12 [Example 297, (4S)-4′-fluoro-7′-(5-fluoro-3-pyridinyl)-2′-((3S)-tetrahydro-3-furanyl)spiro[1,3-oxazole-4,9′-xanthen]-2-amine]",0.0052
4,"NC1=N[C@@]2(CO1)c1cc(-c3cccnc3)c(F)cc1Oc1c(F)cc(C3=CCCOC3)cc12 [Example 298, (4S)-7′-(5,6-dihydro-2H-pyran-3-yl)-3′,5′-difluoro-2′-(3-pyridinyl)spiro[1,3-oxazole-4,9′-xanthen]-2-amine]",0.0968
5,"NC1=N[C@@]2(CO1)c1cc(-c3c(F)ccnc3F)ccc1Oc1cnc(-c3ccnc(F)c3)cc12 [Example 397, (5S)-7-(2,4-difluoro-3-pyridinyl)-3-(2-fluoro-4-pyridinyl)spiro[chromeno[2,3-c]pyridine-5,4′-[1,3]oxazol]-2′-amine]",0.002
6,"NC1=N[C@@]2(CO1)c1cc(-c3ccc(F)cc3)ccc1Oc1cnc(C3CCOCC3)cc12 [Example 400, (5S)-7-(4-fluorophenyl)-3-(tetrahydro-2H-pyran-4-yl)spiro[chromeno[2,3-c]pyridine-5,4′-[1,3]oxazol]-2′-amine]",0.0709
7,"NC1=N[C@@]2(CO1)c1cc(-c3cccc(Cl)c3)ccc1Oc1cnc(N3CCC(F)(F)C3)cc12 [Example 432, (5S)-7-(3-chlorophenyl)-3-(3,3-difluoro-1-pyrrolidinyl)spiro[chromeno[2,3-c]pyridine-5,4′-[1,3]oxazol]-2′-amine]",0.002
8,"NC1=N[C@]2(CO1)c1cc(-c3cccc(Cl)c3)ccc1Oc1cnc(N3CCC(F)(F)C3)cc12 [Example 433, (5R)-7-(3-chlorophenyl)-3-(3,3-difluoro-1-pyrrolidinyl)spiro[chromeno[2,3-c]pyridine-5,4′-[1,3]oxazol]-2′-amine]",0.025
9,"Cc1ncc(-c2cc3c(cn2)Oc2ccc(-c4cccnc4F)cc2[C@@]32COC(N)=N2)cn1 [Example 546, (5S)-7-(2-fluoro-3-pyridinyl)-3-(2-methyl-5-pyrimidinyl)spiro[chromeno[2,3-c]pyridine-5,4′-[1,3]oxazol]-2′-amine]",0.0103
10,"CC(C)(C#N)COc1cc(F)c2c(c1)[C@]1(COC(N)=N1)c1cc(-c3c(F)ccnc3F)ccc1O2 [Example 566, 3-(((4S)-2-amino-7′-(2,4-difluoro-3-pyridinyl)-4′-fluorospiro[1,3-oxazole-4,9′-xanthen]-2′-yl)oxy)-2,2-dimethylpropanenitrile]",0.002
11,"NC1=N[C@@]2(CO1)c1cc(-c3cccnc3F)ccc1Oc1cnc(-c3cncs3)cc12 [Example 576, (5S)-7-(2-fluoro-3-pyridinyl)-3-(1,3-thiazol-5-yl)spiro[chromeno[2,3-c]pyridine-5,4′-[1,3]oxazol]-2′-amine]",0.0046
12,"CC1(C#Cc2cnc3c(c2)[C@]2(CSC(N)=N2)c2cc(-c4cccnc4F)ccc2O3)COC1 [Example 586, (5S)-7-(2-fluoro-3-pyridinyl)-3-((3-methyl-3-oxetanyl)ethynyl)spiro[chromeno[2,3-b]pyridine-5,4′-[1,3]thiazol]-2′-amine]",0.002
13,"NC1=N[C@]2(CS1)c1cc(-c3cccc(C4=CCOCC4)c3)ccc1Oc1cnc(C3=CCOCC3)cc12 [Example 596, (5R)-3-(3,6-dihydro-2H-pyran-4-yl)-7-(3-(3,6-dihydro-2H-pyran-4-yl)phenyl)spiro[chromeno[2,3-c]pyridine-5,4′-[1,3]thiazol]-2′-amine]",0.0478
14,"NC1=N[C@@]2(CS1)c1cc(Br)ccc1Oc1c2cc(Cl)nc1F [Example 597, (5S)-7-bromo-3-chloro-1-fluorospiro[chromeno[2,3-c]pyridine-5,4′-[1,3]thiazol]-2′-amine]",4.5

# Next, values leading:
row,IC50 [µM],Structure (SMILES)
1,0.142,"NC1=N[C@@]2(CS1)c1cc(-c3cncc(F)c3)ccc1Oc1cnc(Cl)cc12 [Example 595, (5S)-3-chloro-7-(5-fluoro-3-pyridinyl)spiro[chromeno[2,3-c]pyridine-5,4′-[1,3]thiazol]-2′-amine]"
2,0.0599,"NC1=N[C@@]2(CO1)c1cc(-c3c(F)ccnc3F)ccc1Oc1cnc(Cl)cc12 [Example 399, (5S)-3-chloro-7-(2,4-difluoro-3-pyridinyl)spiro[chromeno[2,3-c]pyridine-5,4′-[1,3]oxazol]-2′-amine]"
3,0.055,"NC1=N[C@@]2(CO1)c1cc(-c3ccnc(F)c3)ccc1Oc1cnc(-c3ccnc(F)c3)cc12 [Example 548, (5S)-3,7-bis(2-fluoro-4-pyridinyl)spiro[chromeno[2,3-c]pyridine-5,4′-[1,3]oxazol]-2′-amine]"
4,0.0531,"NC1=N[C@@]2(CS1)c1cc(-c3cccnc3F)ccc1Oc1cnc(Cl)cc12 [Example 594, (5S)-3-chloro-7-(2-fluoro-3-pyridinyl)spiro[chromeno[2,3-c]pyridine-5,4′-[1,3]thiazol]-2′-amine]"
5,0.0316,"NC1=N[C@@]2(CS1)c1cc(-c3cccc(Cl)c3)ccc1Oc1cnc(Cl)cc12 [Example 593, (5S)-3-chloro-7-(3-chlorophenyl)spiro[chromeno[2,3-c]pyridine-5,4′-[1,3]thiazol]-2′-amine]"
6,0.029,"NC1=N[C@@]2(CO1)c1cc(-c3cc(F)cnc3F)ccc1Oc1cnc(-c3ccnc(F)c3)cc12 [Example 549, (5S)-7-(2,5-difluoro-3-pyridinyl)-3-(2-fluoro-4-pyridinyl)spiro[chromeno[2,3-c]pyridine-5,4′-[1,3]oxazol]-2′-amine]"
7,0.0261,"NC1=N[C@@]2(CO1)c1cc(-c3ccnc(F)c3)ccc1Oc1cnc(C3=CCOCC3)cc12 [Example 547, (5S)-3-(3,6-dihydro-2H-pyran-4-yl)-7-(2-fluoro-4-pyridinyl)spiro[chromeno[2,3-c]pyridine-5,4′-[1,3]oxazol]-2′-amine]"
8,0.0172,"NC1=N[C@@]2(CO1)c1cc(-c3ccccc3)ncc1Oc1c(F)cc(C3=CCOCC3)cc12 [Example 309, (5S)-7-(3,6-dihydro-2H-pyran-4-yl)-9-fluoro-3-phenylspiro[chromeno[2,3-c]pyridine-5,4′-[1,3]oxazol]-2′-amine]"
9,0.0028,"NC1=N[C@@]2(CO1)c1cc(-c3cccnc3F)ccc1Oc1c(F)cc([C@H]3CCOC3)cc12 [Example 299, (4S)-4′-fluoro-7′-(2-fluoro-3-pyridinyl)-2′-((3R)-tetrahydro-3-furanyl)spiro[1,3-oxazole-4,9′-xanthen]-2-amine]"
10,0.0023,"NC1=N[C@@]2(CO1)c1cc(-c3cccnc3F)ccc1Oc1c(F)cc([C@@H]3CCOC3)cc12 [Example 300, (4S)-4′-fluoro-7′-(2-fluoro-3-pyridinyl)-2′-((3S)-tetrahydro-3-furanyl)spiro[1,3-oxazole-4,9′-xanthen]-2-amine]"
11,0.002,"NC1=N[C@@]2(CO1)c1cc(-c3cccnc3F)ccc1Oc1c2cc(-c2ccnc(F)c2)nc1F [Example 152, (5S)-1-fluoro-7-(2-fluoro-3-pyridinyl)-3-(2-fluoro-4-pyridinyl)spiro[chromeno[2,3-c]pyridine-5,4′-[1,3]oxazol]-2′-amine]"
12,0.002,"NC1=N[C@@]2(CO1)c1cc(-c3c(F)ccnc3F)ccc1Oc1cnc(-c3ccncc3)cc12 [Example 398, (5S)-7-(2,4-difluoro-3-pyridinyl)-3-(4-pyridinyl)spiro[chromeno[2,3-c]pyridine-5,4′-[1,3]oxazol]-2′-amine]"
13,0.002,"NC1=N[C@@]2(CO1)c1cc(-c3cccnc3)ccc1Oc1c2cc(-c2ccnc(F)c2)nc1F [Example 491, (5S)-1-fluoro-3-(2-fluoro-4-pyridinyl)-7-(3-pyridinyl)spiro[chromeno[2,3-c]pyridine-5,4′-[1,3]oxazol]-2′-amine]"
14,0.002,"NC1=N[C@@]2(CO1)c1cc(-c3c(F)ccnc3F)ccc1Oc1c(F)cc(C3=CCOCC3)cc12 [Example 565, (4S)-7′-(2,4-difluoro-3-pyridinyl)-2′-(3,6-dihydro-2H-pyran-4-yl)-4′-fluoro spiro[1,3-oxazole-4,9′-xanthen]-2-amine]"
15,0.002,"NC1=N[C@@]2(CS1)c1cc(-c3cccnc3F)ccc1Oc1ncc(-c3cccnc3F)cc12 [Example 587, (5S)-3,7-bis (2-fluoro-3-pyridinyl)spiro[chromeno[2,3-b]pyridine-5,4′-[1,3]thiazol]-2′-amine]"

# Source: patent publication US8883782B2, “Spiro-tetracyclic ring compounds as beta-secretase modulators and methods of use” (Amgen Inc., priority 2010, dated 2014)
